pIC50: −log10 of the molar value.

The target in one test is human orexin-2 receptor (Homo sapiens (Human), UniProt O43614). Briefly: FLIPR Ca2+ flux assay, orexin-2 receptor. The note with it: CHO cells expressing human orexin-2 receptor; agonist 70 pM Ala-6,12 orexin-A; read-out: hOX2R FLIPR IC50. Type of test: cell-based. The procedure: The utility of the compounds in accordance with the present invention as orexin receptor OX1R and/or OX2R antagonists may be readily determined without undue experimentation by methodology well known in the art, including the “FLIPR Ca^2+ Flux Assay” (Okumura et al., Biochem. Biophys. Res. Comm. 280:976-981, 2001). In a typical experiment the OX1 and OX2 receptor antagonistic activity of the compounds of the present invention was determined in accordance with the following experimental method. For intracellular calcium measurements, Chinese hamster ovary (CHO) cells expressing the rat orexin-1 receptor or the human orexin-2 receptor, are grown in Iscove's modified DMEM containing 2 mM L-glutamine, […], 1% hypoxanthine-thymidine supplement, 100 U/ml penicillin, 100 μg/ml streptomycin and 10% heat-inactivated fetal calf serum (FCS). The cells are seeded at 20,000 cells/well into Becton-Dickinson black 384-well clear bottom sterile plates coated with poly-D-lysine. All reagents were from GIBCO-Invitrogen Corp. The seeded plates are incubated overnight at 37° C. and 5% CO2. Ala-6,12 human orexin-A as the agonist is prepared as a 1 mM stock solution in 1% bovine serum albumin (BSA) and diluted in assay buffer (HBSS containing 20 mM HEPES, 0.1% BSA and 2.5 mM probenecid, pH7.4) for use in the assay at a final concentration of 70 pM. Test compounds are prepared as 10 mM stock solution in DMSO, then diluted in 384-well plates, first in DMSO, then assay buffer. On the day of the assay, cells are washed 3 times with 100 μl assay buffer and then incubated for 60 min (37° C., 5% CO2) in 60 μl assay buffer containing 1 μM Fluo-4AM ester, 0.02% pluronic acid, and 1% BSA. The dye loading solution is then aspirated and cells are washed 3 times with 100 μl assay buffer. 30 μl of that same buffer is left in each well. Within the Fluorescent Imaging Plate Reader (FLIPR, Molecular Devices), test compounds are added to the plate in a volume of 25 μl, incubated for 5 min and finally 25 μl of agonist is added. Fluorescence is measured for each well at 1 second intervals for 5 minutes and the height of each fluorescence peak is compared to the height of the fluorescence peak induced by 70 pM Ala-6,12 orexin-A with buffer in place of antagonist. For each antagonist, IC50 value (the concentration of compound needed to inhibit 50% of the agonist response) is determined. Alternatively, compound potency can be assessed by a radioligand binding assay (described in Bergman et. al. Bioorg. Med. Chem. Lett. 2008, 18, 1425-1430) in which the inhibition constant (Ki) is determined in membranes prepared from CHO cells expressing either the OX1 or OX2 receptor. The intrinsic orexin receptor antagonist activity of a compound which may be used in the present invention may be determined by these assays.
human orexin-2 receptor, sequence (O43614 whole entry): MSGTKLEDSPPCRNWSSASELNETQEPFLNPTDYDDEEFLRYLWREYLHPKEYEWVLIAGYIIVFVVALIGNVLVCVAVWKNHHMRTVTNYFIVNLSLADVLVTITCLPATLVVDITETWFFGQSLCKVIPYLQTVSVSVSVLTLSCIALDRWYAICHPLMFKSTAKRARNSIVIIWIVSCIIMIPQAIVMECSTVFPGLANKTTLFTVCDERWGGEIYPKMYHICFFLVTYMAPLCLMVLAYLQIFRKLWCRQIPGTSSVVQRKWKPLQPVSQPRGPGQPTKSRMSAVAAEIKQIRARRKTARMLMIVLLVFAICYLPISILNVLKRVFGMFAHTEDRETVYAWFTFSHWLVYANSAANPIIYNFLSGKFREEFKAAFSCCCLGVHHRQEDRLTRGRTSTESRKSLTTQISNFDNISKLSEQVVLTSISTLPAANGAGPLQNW

In a further test the target is hOX1R (Homo sapiens, UniProt O43613). The test can be described thus: FLIPR Ca2+ flux assay, orexin-1 receptor. The following applies: CHO cells expressing orexin-1 receptor; agonist 70 pM Ala-6,12 orexin-A. Type of test: cell-based. A general note: A change in cytosolic calcium serves as a functional read-out for many receptors and channels.

Usually pIC50 stands for the IC50 on a negative log10 scale, so that one unit is a factor of ten. As to `C[C@@H]1CC[C@@H](Oc2cc(OCC(F)F)ccn2)CN1C(=O)c1ccccc1-n1nccn1` [Example 27, (2-(2H-1,2,3-triazol-2-yl)phenyl)((2R,5R)-5-((4-(2,2-difluoroethoxy)pyridin-2-yl)oxy)-2-methylpiperidin-1-yl)methanone], the pIC50 on human orexin-2 receptor was 7.92; on hOX1R, 5.85.

On to `C[C@@H]1CC[C@@H](Oc2cc(OCC(F)(F)F)ccn2)CN1C(=O)c1ccccc1-n1nccn1` [Example 28, (2-(2H-1,2,3-triazol-2-yl)phenyl)((2R,5R)-2-methyl-5-((4-(2,2,2-trifluoroethoxy)pyridin-2-yl)oxy)piperidin-1-yl)methanone], for which the pIC50 on human orexin-2 receptor is 8.10; on hOX1R, 5.87.

Take `C[C@@H]1CC[C@@H](Oc2cc(OCC(F)F)ccn2)CN1C(=O)c1ccccc1-n1ncnn1` [Example 29, 4-(2,2-difluoroethoxy)-2-{[(3R,6R)-6-methyl-1-{[2-(2H-tetrazol-2-yl)phenyl]carbonyl}piperidin-3-yl]oxy}pyridine]: the negative logarithm of the IC50 (pIC50) was 7.54 on human orexin-2 receptor and 5.09 at hOX1R.

In the case of `C[C@@H]1CC[C@@H](Oc2cc(OCC(F)(F)F)ccn2)CN1C(=O)c1ccccc1-n1ncnn1` [Example 30, 2-{[(3R,6R)-6-methyl-1-{[2-(2H-tetrazol-2-yl)phenyl]carbonyl}piperidin-3-yl]oxy}-4-(2,2,2-trifluoroethoxy)pyridine], the pIC50 on human orexin-2 receptor is 7.42; at hOX1R, 5.00.

Consider `C[C@@H]1CC[C@@H](Oc2cc(OCC(F)F)ccn2)CN1C(=O)c1ccccc1CS(C)(=O)=O` [Example 31, 4-(2,2-difluoroethoxy)-2-{[(3R,6R)-6-methyl-1-({2-[(methylsulfonyl)methyl]phenyl}carbonyl)piperidin-3-yl]oxy}pyridine], for which the pIC50 at human orexin-2 receptor is 7.47; on hOX1R, less than 5.00.

Regarding `C[C@@H]1CC[C@@H](Oc2cc(OCC(F)F)ccn2)CN1C(=O)c1ccccc1C1(C#N)CC1` [Example 32, 1-(2-{[(2R,5R)-5-{[4-(2,2-difluoroethoxy)pyridin-2-yl]oxy}-2-methylpiperidin-1-yl]carbonyl}phenyl) cyclopropanecarbonitrile], the pIC50 on human orexin-2 receptor was 7.62; at hOX1R it was 5.36.

Consider `C[C@@H]1CC[C@@H](Oc2cc(OCC(F)F)ccn2)CN1C(=O)c1ncccc1-n1nccn1` [Example 33, 2-{[(2R,5R)-5-{[4-(2,2-difluoroethoxy)pyridin-2-yl]oxy}-2-methylpiperidin-1-yl]carbonyl}-3-(2H-1,2,3-triazol-2-yl)pyridine], for which the negative logarithm of the IC50 (pIC50) at human orexin-2 receptor was 7.15; at hOX1R it was less than 5.00.

For the compound `C[C@@H]1CC[C@@H](Oc2cc(OCC(F)F)ccn2)CN1C(=O)c1cccc(F)c1-n1nccn1` [Example 34, 4-(2,2-difluoroethoxy)-2-{[(3R,6R)-1-{[3-fluoro-2-(2H-1,2,3-triazol-2-yl)phenyl]carbonyl}-6-methylpiperidin-3-yl]oxy}pyridine], the pIC50 on human orexin-2 receptor was 7.38; at hOX1R, 5.67.

As for `C[C@@H]1CC[C@@H](Oc2cc(OCC(F)F)ccn2)CN1C(=O)c1ccc(F)cc1-n1nccn1` [Example 35, 4-(2,2-difluoroethoxy)-2-{[(3R,6R)-1-{[4-fluoro-2-(2H-1,2,3-triazol-2-yl)phenyl]carbonyl}-6-methylpiperidin-3-yl]oxy}pyridine], the pIC50 at human orexin-2 receptor was 7.21; at hOX1R, 5.49.

For `C[C@@H]1CC[C@@H](Oc2cc(OCC(F)F)ccn2)CN1C(=O)c1c(F)cccc1-n1nccn1` [Example 36, 4-(2,2-difluoroethoxy)-2-{[(3R,6R)-1-{[2-fluoro-6-(2H-1,2,3-triazol-2-yl)phenyl]carbonyl}-6-methylpiperidin-3-yl]oxy}pyridine], the negative-log IC50 (pIC50) at human orexin-2 receptor was 7.25; on hOX1R, 5.53.

On to `Cc1noc(-c2ccccc2C(=O)N2C[C@H](Oc3cc(OCC(F)F)ccn3)CC[C@H]2C)n1` [Example 37, 4-(2,2-difluoroethoxy)-2-{[(3R,6R)-6-methyl-1-{[2-(3-methyl-1,2,4-oxadiazol-5-yl)phenyl]carbonyl}piperidin-3-yl]oxy}pyridine], for which the pIC50 on human orexin-2 receptor is 7.28; on hOX1R, 5.57.

In the case of `Cc1nc(-c2ccccc2C(=O)N2C[C@H](Oc3cc(OCC(F)F)ccn3)CC[C@H]2C)no1` [Example 38, 4-(2,2-difluoroethoxy)-2-{[(3R,6R)-6-methyl-1-{[2-(5-methyl-1,2,4-oxadiazol-3-yl)phenyl]carbonyl}piperidin-3-yl]oxy}pyridine], the figures for the negative-log IC50 (pIC50) at human orexin-2 receptor and at hOX1R were 7.25 and 5.60, respectively.

Take `C[C@@H]1CC[C@@H](Oc2cc(OC3CC3)ccn2)CN1C(=O)c1ccccc1-n1nccn1` [Example 40, 4-(Cyclopropyloxy)-2-{[(3R,6R)-6-methyl-1-{[2-(2H-1,2,3-triazol-2-yl)phenyl]carbonyl}-piperidin-3-yl]oxy}pyridine]: the pIC50 is 7.82 at human orexin-2 receptor and 6.24 on hOX1R.

For `CC(C)COc1ccnc(O[C@@H]2CC[C@@H](C)N(C(=O)c3ccccc3-n3nccn3)C2)c1` [Example 42, 4-(2-methylpropoxy)-2-{[(3R,6R)-6-methyl-1-{[2-(2H-1,2,3-triazol-2-yl)phenyl]carbonyl}piperidin-3-yl]oxy}pyridine], the pIC50 at human orexin-2 receptor was 6.87; on hOX1R, 5.25.

Take `CCCOc1ccnc(O[C@@H]2CC[C@@H](C)N(C(=O)c3ccccc3-n3nccn3)C2)c1` [Example 43, 2-{[(3R,6R)-6-methyl-1-{[2-(2H-1,2,3-triazol-2-yl)phenyl]carbonyl}piperidin-3-yl]oxy}-4-propoxypyridine]: the pIC50 at human orexin-2 receptor is 7.41; at hOX1R it was 5.60.

For `CC(C)Oc1ccnc(O[C@@H]2CC[C@@H](C)N(C(=O)c3ccccc3-c3ncccn3)C2)c1` [Example 44, 2-(2-{[(2R,5R)-2-Methyl-5-{[4-(1-methylethoxy)pyridin-2-yl]oxy}piperidin-1-yl]carbonyl}phenyl)pyrimidine], the values for the pIC50 on human orexin-2 receptor and on hOX1R were 7.17 and 5.79, respectively.

Turning to `C[C@@H]1CC[C@@H](Oc2cc(OCC(F)F)ccn2)CN1C(=O)c1ccccc1-c1ncccn1` [Example 45, 2-(2-{[(2R,5R)-5-{[4-(2,2-difluoroethoxy)pyridin-2-yl]oxy}-2-methylpiperidin-1-yl]carbonyl}phenyl) pyrimidine], the pIC50 at human orexin-2 receptor was 7.48; on hOX1R, 5.53.

Consider `C[C@@H]1CC[C@@H](Oc2cc(OCC(F)F)ccn2)CN1C(=O)c1ccc(F)cc1-c1ncccn1` [Example 46, 2-(2-{[(2R,5R)-5-{[4-(2,2-difluoroethoxy)pyridin-2-yl]oxy}-2-methylpiperidin-1-yl]carbonyl}-5-fluorophenyl)pyrimidine], for which the pIC50 was 7.20 on human orexin-2 receptor and 5.45 at hOX1R.

With `C[C@@H]1CC[C@@H](Oc2cc(OCC(F)F)ccn2)CN1C(=O)c1ncccc1-c1ncccn1` [Example 47, 2-(2-{[(2R,5R)-5-{[4-(2,2-difluoroethoxy)pyridin-2-yl]oxy}-2-methylpiperidin-1-yl]carbonyl}pyridin-3-yl)pyrimidine], the pIC50 is 7.08 at human orexin-2 receptor and 5.03 on hOX1R.

On to `COc1ccnc(O[C@@H]2CC[C@@H](C)N(C(=O)c3ccccc3-n3nccn3)C2)c1C` [Example 48, 4-Methoxy-3-methyl-2-{[(3R,6R)-6-methyl-1-{[2-(2H-1,2,3-triazol-2-yl)phenyl]carbonyl}piperidin-3-yl]oxy}pyridine], for which the negative logarithm of the IC50 (pIC50) was 8.01 on human orexin-2 receptor and 6.25 at hOX1R.

These data come from patent publication US9745284B2, “2-pyridyloxy-4-ether orexin receptor antagonists” (MERCK SHARP & DOHME CORP., priority 2013, dated 2017).
